# Measured values taken from patent US9284281B2, “Indication of naphtho[2,3-F]quinoxaline-7,12-dione compound in alleviating pain” (NATIONAL CENTRAL UNIVERSITY, priority 2014, dated 2016).
# Tests used:
# Type in all cases: in vivo
# CD-1 mice [1] = test: Nociceptive pain: acute pain induced by pH 5.0 acid solution, mechanical hyperalgesia by von Frey filaments; conditions: for paw withdrawal threshold (PWT): control 4.0±0 g; for effective dosage: intraplantar, acute pain induced by acid solution
# Protocol: Naphtho[2,3-f]quinoxaline-7,12-dione compound was intraplantarly injected into the right hind paws of 8 to 12-week-old CD-1 mice. 5 minutes after the injection, 25 μL of pH 5.0 acid solution was intraplantarly injected into each of the mice. About 60 minutes later, the mice were directly tested with the hypersensitivity to mechanical stimuli using von Frey filaments (Touch-Test North Coast Medical, Inc., Margan Hill, Calif.). The control group was conducted under the same conditions except it was treated with a compound-free saline. The results are shown in FIG. 1, where the injection of 25 μL of the pH 5.0 acid solution induced mechanical hyperalgesia in the right hind paw of the mice, and the paw withdrawal threshold (PWT) of these mice was 1.1±0.065 g. By injecting 2.2 μg/kg of the naphtho[2,3-f]quinoxaline-7,12-dione (NSC745887, D1) compound intraplantarly into the right hind paws of the mice, the paw withdrawal threshold of those mice recovered to 4.0±0 g (PWT of control group mice was 4.0±0 g).
# 25 μL of acid solution with a pH of 5.0 was injected into 8 to 12-week-old CD-1 mice in order to induce mechanical hyperalgesia. Mice injected with saline were the control group; the ones that were injected with compound only were compound group; the ones that were injected with only the acid solution were the acid group and those injected with both compound and the acid solution were the acid+compound group.
# The above-mentioned 1 M of pH 5.0 solution was prepared by dissolving 1.952 g of 2-(N-morpholino)ethanesulfonic acid (MES) in 10 mL of sterilized secondary water. The pH of the solution was adjusted to 5.0 using 1N NaOH solution. Before injection, pH5.0 was diluted with saline into 10 mM.
# (§1) 2.2 μg/kg of the compound was administered to the mice by intraplantar injection about 5 minutes prior to the injection of the acid solution. An hour after the injection of the acid, the hypersensitivity of the mice to mechanical stimuli was measured using von Frey filaments (Touch-Test North Coast Medical, Inc., Margan Hill, Calif.). The mice were placed in transparent plastic chambers (10×8×10 cm) on a metal mesh floor at least 30 minutes per day for 2 days to acclimatize them to the testing room prior to the test. 60 minutes after the mice were administered with the compound, the mechanical hyperalgesia was assessed through the measurement of paw withdrawal frequencies by a sequential series of von Frey filaments of weights 0.6, 1.0, 1.4, 2.0 and 4.0 g applied perpendicularly to the plantar surface of the paw. The paw was briefly stimulated with force sufficient to slightly bend the filaments and a single trial consisted of repeated applications of the von Frey filaments five times, each application lasting for about 5 seconds. The occurrence of paw withdrawal resulting from the stimulation or removing the stimulation for each trial was quantified as a percentage response frequency for each filament. When the frequency was more than 50%, the weight of the von Frey filaments was determined as the paw withdrawal threshold (PWT). To make sure all the mice were under normal physical conditions, all housing conditions complied with general feeding standards, and the temperature and illumination were maintained in a suitable range.
# CD-1 mice [2] = test: Neuropathic pain: chronic constriction injury (CCI) of the sciatic nerve, mechanical hyperalgesia by von Frey filaments; conditions: for paw withdrawal threshold (PWT): one week after CCI
# Source text: The assessment of the effectiveness of the compound for alleviating neuropathic pain used the animal model of chronic constriction injury (CCI) of the sciatic nerve, which was established by Bennett and Xie (1988). After the surgery, the mice developed long-lasting hypersensitivity to mechanical stimuli (chronic mechanical hyperalgesia), even being lightly touched. The mechanical hyperalgesia test was used to evaluate the analgesic effect of the compound.
# The mice, after a week following the surgery, were intraplantarly injected with a series of different dosages of the naphtho[2,3-f]quinoxaline-7,12-dione compound, […], or the mice were injected with 2.2 μg/kg of compound intrathecally, or with 43 μg/kg of the compound intraperitoneally. The hypersensitivity to mechanical stimuli was measured using von Frey filaments at 60 minutes after the injection. The mice injected with saline following surgery were the control group and the other mice injected with gabapentin following surgery were the positive control group.
# as §1
# According to the method described by Bennett and Xie, Pain, 1988, 33, 87-107, 8 to 12-week-old CD-1 mice were subjected to the chronic constriction injury (CCI) of the sciatic nerve, which is an animal model inducing chronic neuropathic pain. To anesthetize the mice, each of the mice was injected with 240 mg/kg of 2,2,2-tribromoethanol (Avertin). Then three ligatures were loosely tied around the sciatic nerve of the mouse with chromic gut. The surgical procedure for the Sham (non ligation) control group was identical to that mentioned above except that the sciatic nerves were not ligated. A week after the mice in the experimental (CCI+compound) group had chronic constriction injury of sciatic nerves, the compound was intraplantarly, intrathecally, or intraperitoneally injected into the mice. 60 minutes after the injection, the mice were directly subjected to the hypersensitivity test to mechanical stimuli. The mice under the surgery treated with saline were the CCI group; the mice treated with gabapentin were the positive control (CCI+Gabapentin) group.
# mice = test: Inflammatory pain: chronic inflammatory pain induced by Complete Freund's Adjuvant (CFA), mechanical hyperalgesia by von Frey filaments
# Protocol: When 50% CFA was intraplantarly injected into the mouse, paw edema and chronic mechanical hyperalgesia were developed in the tested mice. Different dosages of the naphtho[2,3-f]quinoxaline-7,12-dione compound, 0.22, 2.2, 22 μg/kg were intraplantarly injected into mouse hindpaw, followed by 50% CFA injection. At 60 minutes after the CFA injection, the hypersensitivity of the mice to mechanical stimuli was measured using von Frey filaments.
# as §1
# To induce paw edema and chronic inflammatory pain, 25 μL of 50% Complete Freund's Adjuvant (CFA) in saline was intraplantarly injected into the right hind paw of the mouse. […] 60 minutes after the CFA injection, the hypersensitivity to mechanical stimuli was measured using von Frey filaments.
# [3] = 2.2 μg/kg intraplantar once every week for three weeks, FIG. 3
smiles,measurement,setting,value
"Cc1nc2ccc3c(c2nc1C)C(=O)c1ccccc1C3=O [C3, 2,3-dimethylnaphtho[2,3-f]quinoxaline-7,12-dione]",paw withdrawal threshold (PWT),"CD-1 mice [1]; 24 μg/kg intraplantar, then pH 5.0 acid solution, FIG. 1B",2.0 ± 0 g
same,effective dosage,CD-1 mice [1],24 µg/kg
same,paw withdrawal threshold (PWT),"CD-1 mice [2]; 24 μg/kg intraplantar, FIG. 2B",1.4 g
same,paw withdrawal threshold (PWT),"mice; 24 μg/kg intraplantar before CFA, FIG. 4B",1.4 g
"O=C1c2ccccc2C(=O)c2c1ccc1nccnc21 [D1, naphtho[2,3-f]quinoxaline-7,12-dione]",paw withdrawal threshold (PWT),"CD-1 mice [1]; 2.2 μg/kg intraplantar, 5 min before pH 5.0 acid solution, about 60 min later, acid only 1.1±0.065 g",4.0 ± 0 g
same,effective dosage,CD-1 mice [1],2.2 µg/kg
same,"paw withdrawal threshold (PWT), compound without acid solution","CD-1 mice [1]; sole injection of the compound without the acid solution, did not induce pain",4.0 ± 0 g
same,tolerance to the compound,CD-1 mice [2]; 2.2 μg/kg intraplantar once every week for three weeks,no obvious indication that the mice developed tolerance
same,"paw withdrawal threshold (PWT), first week",CD-1 mice [2]; [3],3.3 ± 0.67 g
same,"paw withdrawal threshold (PWT), second week",CD-1 mice [2]; [3],3.3 ± 0.67 g
same,"paw withdrawal threshold (PWT), third week",CD-1 mice [2]; [3],3.0 ± 0.1 g
same,paw withdrawal threshold (PWT),"CD-1 mice [2]; 2.2 μg/kg intraplantar, 60 min after injection, FIG. 2A, CCI 0.9±0.23 g, control 3.6±0.29 g",3.3 ± 0.67 g
same,paw withdrawal threshold (PWT),"CD-1 mice [2]; 2.2 μg/kg intraplantar, FIG. 2B, CCI 0.9±0.23 g",2.0 ± 0 g
same,paw withdrawal threshold (PWT),"CD-1 mice [2]; 2.2 μg/kg intrathecal, FIG. 2A",2.0 g
same,paw withdrawal threshold (PWT),"CD-1 mice [2]; 22 μg/kg intraplantar, FIG. 2A",3.3 ± 0.67 g
same,inhibition of mechanical hyperalgesia induced by CCI,CD-1 mice [2]; 43 μg/kg intraperitoneal,completely inhibited mechanical hyperalgesia
same,paw withdrawal threshold (PWT),"mice; 2.2 μg/kg intraplantar before 50% CFA, 60 min after CFA, FIG. 4A, CFA 0.4±0.033 g, control 3.8±0.171 g",1.1 ± 0.15 g
same,paw withdrawal threshold (PWT),"mice; 22 μg/kg intraplantar before 50% CFA, FIG. 4A",2.0 ± 0.411 g
same,paw withdrawal threshold (PWT),"mice; 22 μg/kg intraplantar before CFA, FIG. 4B, control 3.8±0.171 g",2.3 g
"O=C1c2ccccc2C(=O)c2c1ccc1[nH]c(=O)c(=O)[nH]c21 [D2, naphtho[2,3-f]quinoxaline-2,3,7,12(1H,4H)-tetraone]",paw withdrawal threshold (PWT),"CD-1 mice [1]; 24.3 μg/kg intraplantar, then pH 5.0 acid solution, FIG. 1C",4.0 ± 0 g
same,effective dosage,CD-1 mice [1],24.3 µg/kg
same,paw withdrawal threshold (PWT),"CD-1 mice [2]; 24.3 μg/kg intraplantar, FIG. 2B",2.0 ± 0 g
same,paw withdrawal threshold (PWT),"mice; 24.3 μg/kg intraplantar before CFA, FIG. 4B",1.0 g
"NCC1(CC(=O)O)CCCCC1 [gabapentin, reference compound]",dose required to inhibit chronic mechanical hyperalgesia caused by CCI,CD-1 mice [2]; intraperitoneal injection,"at least 15,000 μg/kg"
